Assay results from patent US11591336B2 (Relay Therapeutics, Inc., priority 2017, dated 2023).

Biological target: SHP2 (Homo sapiens (Human), UniProt Q06124)
Test: SHP2 Allosteric Inhibition Assay (DiFMUP prompt fluorescence)
Format: biochemical
Conditions: 0.25 nM SHP2 activated with 0.5 μM peptide IRS1_pY1172(dPEG8)pY1222; substrate DiFMUP 100 μM; 25° C.

Chain of SHP2 (Q06124 whole entry): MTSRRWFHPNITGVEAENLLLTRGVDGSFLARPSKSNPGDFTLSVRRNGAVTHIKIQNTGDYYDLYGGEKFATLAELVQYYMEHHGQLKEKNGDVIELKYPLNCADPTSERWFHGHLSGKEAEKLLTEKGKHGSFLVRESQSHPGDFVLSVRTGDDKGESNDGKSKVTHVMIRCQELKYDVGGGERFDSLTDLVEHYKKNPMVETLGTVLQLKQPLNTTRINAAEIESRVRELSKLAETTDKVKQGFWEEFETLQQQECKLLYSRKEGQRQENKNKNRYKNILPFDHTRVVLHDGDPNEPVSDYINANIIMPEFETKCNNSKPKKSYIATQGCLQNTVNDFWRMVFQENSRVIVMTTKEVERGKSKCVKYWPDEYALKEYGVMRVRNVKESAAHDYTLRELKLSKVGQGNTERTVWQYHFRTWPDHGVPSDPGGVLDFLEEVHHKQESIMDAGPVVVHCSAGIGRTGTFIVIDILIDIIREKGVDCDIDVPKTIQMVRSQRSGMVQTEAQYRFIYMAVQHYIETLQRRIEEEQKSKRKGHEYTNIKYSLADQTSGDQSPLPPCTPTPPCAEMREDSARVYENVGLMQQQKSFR

Question: Which IC50 does the source give for `C[C@@H]1OCC2(CCN(c3cnc4c(N5CCCc6nc(-c7cnco7)ccc65)n[nH]c4n3)CC2)[C@@H]1N` [Compound 318] here?
Answer: < 1 µM

Question: Which IC50 does the source give for `Cc1nc(-c2ccc3c(n2)CCCN3c2n[nH]c3nc(N4CCC5(CC4)CO[C@@H](C)[C@H]5N)cnc23)no1` [Compound 319, (3S,4S)-3-methyl-8-(3-[6-(5-methyl-1,2,4-oxadiazol-3-yl)-1,2,3,4-tetrahydro-1,5-naphthyridin-1-yl]-1H-pyrazolo[3,4-b]pyrazin-6-yl)-2-oxa-8-azaspiro[4.5]decan-4-amine; formic acid] here?
Answer: < 1 µM

Question: With `CCc1nc(-c2ccc3c(n2)CCCN3c2n[nH]c3nc(N4CCC5(CC4)CO[C@@H](C)[C@H]5N)cnc23)no1` [Compound 320, (3S,4S)-8-{3-[6-(5-ethyl-1,2,4-oxadiazol-3-yl)-1,2,3,4-tetrahydro-1,5-naphthyridin-1-yl]-1H-pyrazolo[3,4-b]pyrazin-6-yl}-3-methyl-2-oxa-8-azaspiro[4.5]decan-4-amine; formic acid] as the molecule, how does the IC50 read?
Answer: < 1 µM

Question: Which IC50 does the source give for `CC(C)c1nc(-c2ccc3c(n2)CCCN3c2n[nH]c3nc(N4CCC5(CC4)CO[C@@H](C)[C@H]5N)cnc23)no1` [Compound 321, (3S,4S)-3-methyl-8-(3-{6-[5-(propan-2-yl)-1,2,4-oxadiazol-3-yl]-1,2,3,4-tetrahydro-1,5-naphthyridin-1-yl}-1H-pyrazolo[3,4-b]pyrazin-6-yl)-2-oxa-8-azaspiro[4.5]decan-4-amine; formic acid] here?
Answer: < 1 µM

Question: With `C[C@@H]1OCC2(CCN(c3cnc4c(N5CC(=O)Nc6ncncc65)n[nH]c4n3)CC2)[C@@H]1N` [Compound 322] as the molecule, how does the IC50 read?
Answer: 1 to 10 µM

Question: For `CC(=O)N1CCN(c2n[nH]c3nc(N4CCC5(CC4)CO[C@@H](C)[C@H]5N)cnc23)c2ccc(-c3cnn(C)c3)cc21` [Compound 323], which IC50 is on record?
Answer: < 1 µM

Question: With `C[C@@H]1OCC2(CCN(c3cnc4c(N5CCOc6nc(-c7cnn(C)c7)ccc65)n[nH]c4n3)CC2)[C@@H]1N` [Compound 324] as the molecule, how does the IC50 read?
Answer: < 1 µM

Question: With `C[C@@H]1OCC2(CCN(c3cnc4c(N5CCN(S(C)(=O)=O)c6ccccc65)n[nH]c4n3)CC2)[C@@H]1N` [Compound 325] as the molecule, how does the IC50 read?
Answer: < 1 µM

Question: `C[C@@H]1OCC2(CCN(c3cnc4c(N5CC[C@@H](C(F)F)c6cc(C#N)ccc65)n[nH]c4n3)CC2)[C@@H]1N` [Compound 326] was tested. Which IC50 did it give?
Answer: < 1 µM

Question: `C[C@@H]1OCC2(CCN(c3cnc4c(N5CC[C@H](C(F)F)c6cc(C#N)ccc65)n[nH]c4n3)CC2)[C@@H]1N` [Compound 327] was tested. Which IC50 did it give?
Answer: < 1 µM

Question: `Cc1coc(-c2ccc3c(n2)CCCN3c2n[nH]c3nc(N4CCC5(CC4)CO[C@@H](C)[C@H]5N)cnc23)n1` [Compound 328] was tested. Which IC50 did it give?
Answer: < 1 µM

Question: `CNC(=O)c1ccc2c(c1)NCCN2c1n[nH]c2nc(N3CCC4(CC3)CO[C@@H](C)[C@H]4N)cnc12` [Compound 329, 1-{6-[(3S,4S)-4-amino-3-methyl-2-oxa-8-azaspiro[4.5]decan-8-yl]-1H-pyrazolo[3,4-b]pyrazin-3-yl}-N-methyl-1,2,3,4-tetrahydroquinoxaline-6-carboxamide] was tested. Which IC50 did it give?
Answer: < 1 µM

Question: With `Cc1cccc2c1CCCN2c1n[nH]c2nc(N3CCC4(CC3)CO[C@@H](C)[C@H]4N)cnc12` [Compound 330] as the molecule, how does the IC50 read?
Answer: < 1 µM

Question: For `CNC(=O)N1CCN(c2n[nH]c3nc(N4CCC5(CC4)CO[C@@H](C)[C@H]5N)cnc23)c2cccnc21` [Compound 331, 1-{6-[(3S,4S)-4-amino-3-methyl-2-oxa-8-azaspiro[4.5]decan-8-yl]-1H-pyrazolo[3,4-b]pyrazin-3-yl}-N-methyl-1H,2H,3H,4H-pyrido[2,3-b]pyrazine-4-carboxamide], which IC50 is on record?
Answer: < 1 µM

Question: With `C[C@@H]1OCC2(CCN(c3cnc4c(N5CCNc6cc(-c7ccnnc7)ccc65)n[nH]c4n3)CC2)[C@@H]1N` [Compound 332] as the molecule, how does the IC50 read?
Answer: < 1 µM

Question: For `COCCn1cc(-c2ccc3c(n2)CCCN3c2n[nH]c3nc(N4CCC5(CC4)CO[C@@H](C)[C@H]5N)cnc23)cn1` [Compound 333, (3S,4S)-8-(3-{6-[1-(2-methoxyethyl)-1H-pyrazol-4-yl]-1,2,3,4-tetrahydro-1,5-naphthyridin-1-yl}-1H-pyrazolo[3,4-b]pyrazin-6-yl)-3-methyl-2-oxa-8-azaspiro[4.5]decan-4-amine], which IC50 is on record?
Answer: < 1 µM

Question: Which IC50 does the source give for `CCn1cc(-c2ccc3c(n2)CCCN3c2n[nH]c3nc(N4CCC5(CC4)CO[C@@H](C)[C@H]5N)cnc23)cn1` [Compound 334, (3S,4S)-8-{3-[6-(1-ethyl-1H-pyrazol-4-yl)-1,2,3,4-tetrahydro-1,5-naphthyridin-1-yl]-1H-pyrazolo[3,4-b]pyrazin-6-yl}-3-methyl-2-oxa-8-azaspiro[4.5]decan-4-amine] here?
Answer: < 1 µM

Question: With `C[C@@H]1OCC2(CCN(c3cnc4c(N5CCCc6c5ccnc6C(N)=O)n[nH]c4n3)CC2)[C@@H]1N` [Compound 335, 1-{6-[(3S,4S)-4-amino-3-methyl-2-oxa-8-azaspiro[4.5]decan-8-yl]-1H-pyrazolo[3,4-b]pyrazin-3-yl}-1,2,3,4-tetrahydro-1,6-naphthyridine-5-carboxamide] as the molecule, how does the IC50 read?
Answer: < 1 µM

Question: For `C[C@@H]1OCC2(CCN(c3cnc4c(N5CCCc6nc(C7=CCOC7)ccc65)n[nH]c4n3)CC2)[C@@H]1N` [Compound 336], which IC50 is on record?
Answer: < 1 µM

Question: How did the IC50 turn out when `C[C@@H]1OCC2(CCN(c3cnc4c(N5CCc6ccc(-c7cnn(C)c7)cc6C5)n[nH]c4n3)CC2)[C@@H]1N` [Compound 337] was run?
Answer: < 1 µM

Question: How did the IC50 turn out when `C[C@@H]1OCC2(CCN(c3cnc4c(N5CCc6cc(-c7cnn(C)c7)ccc6C5)n[nH]c4n3)CC2)[C@@H]1N` [Compound 338] was run?
Answer: < 1 µM

Question: `N[C@@H]1CCC12CCN(c1cnc3c(N4CCCc5ncccc54)n[nH]c3n1)CC2` [Compound 339, (1R)-7-[3-(1,2,3,4-tetrahydro-1,5-naphthyridin-1-yl)-1H-pyrazolo[3,4-b]pyrazin-6-yl]-7-azaspiro[3.5]nonan-1-amine] was tested. Which IC50 did it give?
Answer: < 1 µM

Question: `N[C@H]1CCC12CCN(c1cnc3c(N4CCCc5ncccc54)n[nH]c3n1)CC2` [Compound 340, (1S)-7-[3-(1,2,3,4-tetrahydro-1,5-naphthyridin-1-yl)-1H-pyrazolo[3,4-b]pyrazin-6-yl]-7-azaspiro[3.5]nonan-1-amine] was tested. Which IC50 did it give?
Answer: < 1 µM

Question: How did the IC50 turn out when `C[C@@H]1OCC2(CCN(c3cnc4c(N5CCS(=O)(=O)c6ccccc65)n[nH]c4n3)CC2)[C@@H]1N` [Compound 341] was run?
Answer: < 1 µM

Question: For `CNC(=O)N1CCN(c2n[nH]c3nc(N4CCC5(CC4)CO[C@@H](C)[C@H]5N)cnc23)c2ccccc21` [Compound 342], which IC50 is on record?
Answer: < 1 µM

Question: `C[C@@H]1OCC2(CCN(c3cnc4c(N5CCCc6c(NS(C)(=O)=O)cccc65)n[nH]c4n3)CC2)[C@@H]1N` [Compound 343, N-(1-{6-[(3S,4S)-4-amino-3-methyl-2-oxa-8-azaspiro[4.5]decan-8-yl]-1H-pyrazolo[3,4-b]pyrazin-3-yl}-1,2,3,4-tetrahydroquinolin-5-yl)methanesulfonamide] was tested. Which IC50 did it give?
Answer: < 1 µM

Question: For `C[C@@H]1OCC2(CCN(c3cnc4c(N5CCCc6c5cccc6N(S(C)(=O)=O)S(C)(=O)=O)n[nH]c4n3)CC2)[C@@H]1N` [Compound 344, N-(1-{6-[(3S,4S)-4-amino-3-methyl-2-oxa-8-azaspiro[4.5]decan-8-yl]-1H-pyrazolo[3,4-b]pyrazin-3-yl}-1,2,3,4-tetrahydroquinolin-5-yl)-N-methanesulfonylmethanesulfonamide], which IC50 is on record?
Answer: < 1 µM

Question: `Cc1ccc2c(c1S(C)(=O)=O)CCCN2c1n[nH]c2nc(N3CCC4(CC3)CO[C@@H](C)[C@H]4N)cnc12` [Compound 345] was tested. Which IC50 did it give?
Answer: < 1 µM
